Measurements published in patent US10414811B2, “Protease-resistant lipidated GLP-1 analogs” (MEDIMMUNE LIMITED, priority 2015, dated 2019).
Where two headings read alike, the source gives them in different places. Numbered stars: 1 amine (or outer) side, 2 acyl side, 3 side chain; on linkers, the order of the positions; unused ones are H or OH. Square brackets hold non-standard residues; d marks the D form. Side chains are listed from the residue outwards. Peptide text beside a SMILES is read from it. * marks the point of attachment. C18 diacid = O=C(O)CCCCCCCCCCCCCCCCC(=O)*; γGlu = O=C(O)[C@H](CCC(=O)[*:2])N[*:1]; Palmitoyl = CCCCCCCCCCCCCCCC(=O)*; αMeF = C[C@](N)(Cc1ccccc1)C(=O)O; αMeK = C[C@](N)(CCCCN)C(=O)O; αMeS = C[C@](N)(CO)C(=O)O; AEEA = NCCOCCOCC(=O)O; Aib = CC(C)(N)C(=O)O

Assays:
Type in all cases: cell-based
[1] = target: T1, human glucose-dependent insulinotropic peptide receptor (GIPR) (Homo sapiens, UniProt P48546); assay: cAMP assay, human GIPR cells; conditions: cAMP assay
T1 construct: expressed in transfected cells
T1 sequence (P48546 22-466): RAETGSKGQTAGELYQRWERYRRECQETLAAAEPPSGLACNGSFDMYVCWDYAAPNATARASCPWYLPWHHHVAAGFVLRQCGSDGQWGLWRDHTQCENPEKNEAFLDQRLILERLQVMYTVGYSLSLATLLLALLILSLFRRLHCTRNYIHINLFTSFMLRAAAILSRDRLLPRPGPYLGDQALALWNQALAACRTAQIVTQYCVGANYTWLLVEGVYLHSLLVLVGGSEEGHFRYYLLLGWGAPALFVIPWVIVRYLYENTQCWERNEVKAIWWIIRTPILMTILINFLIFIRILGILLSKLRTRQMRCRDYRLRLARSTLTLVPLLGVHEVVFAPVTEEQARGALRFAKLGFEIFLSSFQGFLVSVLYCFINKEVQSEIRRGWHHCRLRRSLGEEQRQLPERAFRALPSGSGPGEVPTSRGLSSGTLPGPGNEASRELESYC
How it was run: (§1)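 Peptide-stimulated cAMP measured by two-step HTRF after a 30 min room-temperature incubation with receptor-expressing cells (hGLP-1R, hGIPR at 1×10^5 cells/ml; hGCGR at 2×10^5 cells/ml). Duplicate dilutions; EC50 from 4-parameter logistic fit of % Delta F.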

[2] = target: T2, human glucagon receptor (GCGR) (Homo sapiens, UniProt P47871); assay: cAMP assay, human GCGR cells; conditions: cAMP assay
T2 construct: expressed in transfected cells
T2 sequence (P47871 26-477): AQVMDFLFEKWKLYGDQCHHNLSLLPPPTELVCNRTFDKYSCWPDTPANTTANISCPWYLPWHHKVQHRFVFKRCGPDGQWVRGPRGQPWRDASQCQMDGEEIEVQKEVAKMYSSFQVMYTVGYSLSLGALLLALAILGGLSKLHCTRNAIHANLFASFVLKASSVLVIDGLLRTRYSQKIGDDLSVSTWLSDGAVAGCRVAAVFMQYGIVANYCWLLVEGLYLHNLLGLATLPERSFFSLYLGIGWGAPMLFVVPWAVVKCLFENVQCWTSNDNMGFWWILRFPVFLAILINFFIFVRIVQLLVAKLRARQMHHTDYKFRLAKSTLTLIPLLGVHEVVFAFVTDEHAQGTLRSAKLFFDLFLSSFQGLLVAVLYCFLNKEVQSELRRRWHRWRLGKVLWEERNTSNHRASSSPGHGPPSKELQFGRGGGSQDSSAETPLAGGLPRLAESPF
How it was run: as §1

[3] = target: T3, human GLP-1 receptor (GLP-1R) (Homo sapiens, UniProt P43220); assay: cAMP assay, human GLP-1R cells
T3 construct: expressed in transfected cells
T3 sequence (P43220 24-463): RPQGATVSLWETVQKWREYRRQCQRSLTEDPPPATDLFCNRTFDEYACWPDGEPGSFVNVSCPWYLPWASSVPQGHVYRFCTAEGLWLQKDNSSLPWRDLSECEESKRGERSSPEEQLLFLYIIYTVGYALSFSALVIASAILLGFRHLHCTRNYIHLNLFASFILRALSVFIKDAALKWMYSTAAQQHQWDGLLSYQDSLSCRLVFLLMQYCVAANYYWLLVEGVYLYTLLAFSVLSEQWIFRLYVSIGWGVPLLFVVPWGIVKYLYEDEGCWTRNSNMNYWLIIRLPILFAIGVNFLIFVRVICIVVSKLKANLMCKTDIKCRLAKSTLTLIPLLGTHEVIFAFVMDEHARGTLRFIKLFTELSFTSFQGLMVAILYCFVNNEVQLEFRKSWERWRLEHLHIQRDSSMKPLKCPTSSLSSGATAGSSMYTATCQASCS
How it was run: as §1

[4] = target: T4, GLP-1R (INS1e assay) (Rattus norvegicus, UniProt P32301); assay: INS1e assay, cAMP activity at GLP-1R; conditions: mono-lipidated peptides
T4 construct: endogenous in cells; host or cells: INS-1E cells
T4 sequence (P32301 22-463): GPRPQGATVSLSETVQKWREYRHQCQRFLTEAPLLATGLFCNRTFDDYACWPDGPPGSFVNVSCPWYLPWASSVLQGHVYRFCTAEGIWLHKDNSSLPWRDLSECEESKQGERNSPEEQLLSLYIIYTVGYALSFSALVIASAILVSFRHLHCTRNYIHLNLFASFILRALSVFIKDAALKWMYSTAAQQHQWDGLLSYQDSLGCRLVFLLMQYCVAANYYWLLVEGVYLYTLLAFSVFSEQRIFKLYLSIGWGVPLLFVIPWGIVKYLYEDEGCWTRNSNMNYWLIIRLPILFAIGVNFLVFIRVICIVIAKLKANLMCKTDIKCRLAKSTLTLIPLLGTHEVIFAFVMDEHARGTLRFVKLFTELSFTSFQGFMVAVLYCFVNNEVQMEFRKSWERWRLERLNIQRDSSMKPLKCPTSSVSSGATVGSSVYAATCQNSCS
How it was run: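 It pairs cAMP-d2 acceptor with anti-cAMP cryptate donor, both prepared 1/20 in conjugate/lysis buffer, applied as a two-step protocol.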

[5] = first determination (n1), read-out: Primary assay EC50 GIP-R (n1)
[6] = second determination (n2), read-out: Primary assay EC50 GIP-R (n2)
[7] = first determination (n1), read-out: Primary assay EC50 Gluc-R (n1)
[8] = second determination (n2), read-out: Primary assay EC50 Gluc-R (n2)
[9] = cAMP assay, first determination (n1), read-out: Primary assay EC50 GLP-1R n1
[10] = cAMP assay, second determination (n2), read-out: Primary assay EC50 GLP-1R n2
[11] = mean of n1 and n2, read-out: Mean pM GLP-1R
[12] = mean of n1 and n2, read-out: INS1e assay EC50 Mean pM GLP-1R
[13] = replicate n1, read-out: INS1e assay EC50 GLP-1R n1
[14] = replicate n2, read-out: INS1e assay EC50 GLP-1R n2

EC50 [1, 5] [nM] | EC50 [1, 6] [nM] | EC50 [2, 7] [nM] | EC50 [2, 8] [nM] | EC50 [3, 9] [pM] | EC50 [3, 10] [pM] | EC50 [3, 11] [pM] | EC50 [4, 12] [pM] | EC50 [4, 13] [pM] | EC50 [4, 14] [pM] | SMILES
≥ 28 | ≥ 28 | ≥ 28 | ≥ 28 | 2.3 |  |  | 102 | 77.4 | 127 | CCCCCCCCCCCCCCCC(=O)N[C@@H](CCC(=O)NCCCC[C@H](NC(=O)[C@](C)(Cc1ccccc1)NC(=O)[C@H](C)NC(=O)[C@@H](NC(=O)[C@](C)(Cc1ccccc1)NC(=O)[C@H](CCC(=O)O)NC(=O)[C@](C)(CCCCN)NC(=O)[C@H](C)NC(=O)[C@H](C)NC(=O)[C@H](CCC(=O)O)NC(=O)CNC(=O)[C@H](CCC(=O)O)NC(=O)[C@H](CC(C)C)NC(=O)[C@](C)(Cc1ccccc1)NC(=O)[C@H](CO)NC(=O)[C@](C)(CO)NC(=O)[C@@H](NC(=O)[C@H](CC(=O)O)NC(=O)[C@H](CO)NC(=O)[C@@H](NC(=O)[C@](C)(Cc1ccccc1)NC(=O)[C@H](CO)NC(=O)CNC(=O)[C@H](CCC(=O)O)NC(=O)C(C)(C)NC(=O)[C@@H](N)Cc1c[nH]cn1)[C@@H](C)O)C(C)C)[C@@H](C)CC)C(=O)N[C@H](C(=O)N[C@@](C)(CCCCN)C(=O)NCC(=O)NCC(N)=O)C(C)C)C(=O)O [compound 74] (H-H[Aib]EGS[αMeF]TSDV[αMeS]S[αMeF]LEGEAA[αMeK]E[αMeF]IA[αMeF]K([γGlu-Palmitoyl])V[αMeK]GG-NH2)
≥ 28 | ≥ 28 | ≥ 28 | ≥ 28 | 2 | 1.4 | 1.7 | 56 | 49.7 | 63 | CCCCCCCCCCCCCCCC(=O)N[C@@H](CCC(=O)NCCCC[C@H](NC(=O)[C@H](C)NC(=O)[C@@H](NC(=O)[C@](C)(Cc1ccccc1)NC(=O)[C@H](CCC(=O)O)NC(=O)[C@](C)(CCCCN)NC(=O)[C@H](C)NC(=O)[C@H](C)NC(=O)[C@H](CCC(=O)O)NC(=O)CNC(=O)[C@H](CCC(=O)O)NC(=O)[C@H](CC(C)C)NC(=O)[C@](C)(Cc1ccccc1)NC(=O)[C@H](CO)NC(=O)[C@](C)(CO)NC(=O)[C@@H](NC(=O)[C@H](CC(=O)O)NC(=O)[C@H](CO)NC(=O)[C@@H](NC(=O)[C@](C)(Cc1ccccc1)NC(=O)[C@H](CO)NC(=O)CNC(=O)[C@H](CCC(=O)O)NC(=O)C(C)(C)NC(=O)[C@@H](N)Cc1c[nH]cn1)[C@@H](C)O)C(C)C)[C@@H](C)CC)C(=O)N[C@H](C(=O)N[C@H](C(=O)N[C@@](C)(CCCCN)C(=O)NCC(=O)NCC(N)=O)C(C)C)C(C)C)C(=O)O [compound 75]

The remaining lines, values behind:

SMILES | EC50 [1, 5] [nM] | EC50 [1, 6] [nM] | EC50 [2, 7] [nM] | EC50 [2, 8] [nM] | EC50 [3, 9] [pM] | EC50 [3, 10] [pM] | EC50 [3, 11] [pM] | EC50 [4, 12] [pM] | EC50 [4, 13] [pM] | EC50 [4, 14] [pM]
CC[C@H](C)[C@H](NC(=O)[C@H](Cc1ccccc1)NC(=O)[C@H](CCC(=O)O)NC(=O)[C@H](C)NC(=O)[C@H](C)NC(=O)[C@H](C)NC(=O)[C@H](CCC(=O)O)NC(=O)CNC(=O)[C@H](CCC(=O)O)NC(=O)[C@H](CC(C)C)NC(=O)[C@](C)(Cc1ccccc1)NC(=O)[C@H](CO)NC(=O)[C@](C)(CO)NC(=O)[C@@H](NC(=O)[C@H](CC(=O)O)NC(=O)[C@H](CO)NC(=O)[C@@H](NC(=O)[C@](C)(Cc1ccccc1)NC(=O)[C@H](CO)NC(=O)CNC(=O)[C@H](CCC(=O)O)NC(=O)C(C)(C)NC(=O)[C@@H](N)Cc1c[nH]cn1)[C@@H](C)O)C(C)C)C(=O)N[C@@H](CCCCNC(=O)COCCOCCNC(=O)COCCOCCNC(=O)CC[C@H](NC(=O)CCCCCCCCCCCCCCCCC(=O)O)C(=O)O)C(=O)N[C@@H](Cc1c[nH]c2ccccc12)C(=O)N[C@H](C(=O)N[C@H](C(=O)N[C@@H](CCC(=O)O)C(=O)NCC(=O)NCC(N)=O)C(C)C)C(C)C [compound 69] (H-H[Aib]EGS[αMeF]TSDV[αMeS]S[αMeF]LEGEAAAEFIK([AEEA-AEEA-γGlu-C18 diacid])WVVEGG-NH2; N-terminus assumed) | ≥ 25.5 | ≥ 25.5 | ≥ 25.5 | ≥ 25.5 | 66.1 | 39.9 | 53 | 22100 | 19200 | 25000
CCCCCCCCCCCCCCCC(=O)N[C@@H](CCC(=O)NCCCC[C@H](NC(=O)[C@](C)(CCCCN)NC(=O)[C@@H](NC(=O)[C@@H](NC(=O)[C@](C)(Cc1ccccc1)NC(=O)[C@H](C)NC(=O)[C@@H](NC(=O)[C@](C)(Cc1ccccc1)NC(=O)[C@H](CCC(=O)O)NC(=O)[C@](C)(CCCCN)NC(=O)[C@H](C)NC(=O)[C@H](C)NC(=O)[C@H](CCC(=O)O)NC(=O)CNC(=O)[C@H](CCC(=O)O)NC(=O)[C@H](CC(C)C)NC(=O)[C@](C)(Cc1ccccc1)NC(=O)[C@H](CO)NC(=O)[C@](C)(CO)NC(=O)[C@@H](NC(=O)[C@H](CC(=O)O)NC(=O)[C@H](CO)NC(=O)[C@@H](NC(=O)[C@](C)(Cc1ccccc1)NC(=O)[C@H](CO)NC(=O)CNC(=O)[C@H](CCC(=O)O)NC(=O)C(C)(C)NC(=O)[C@@H](N)Cc1c[nH]cn1)[C@@H](C)O)C(C)C)[C@@H](C)CC)C(C)C)C(C)C)C(=O)NCC(N)=O)C(=O)O [compound 71] (H-H[Aib]EGS[αMeF]TSDV[αMeS]S[αMeF]LEGEAA[αMeK]E[αMeF]IA[αMeF]VV[αMeK]K([γGlu-Palmitoyl])G-NH2) | ≥ 27 | ≥ 27 | ≥ 27 | ≥ 27 | 6.2 | 8 | 7.1 | 723 | 604 | 841
CCCCCCCCCCCCCCCC(=O)N[C@@H](CCC(=O)NCCCC[C@H](NC(=O)[C@@H](NC(=O)[C@@H](NC(=O)[C@](C)(Cc1ccccc1)NC(=O)[C@H](C)NC(=O)[C@@H](NC(=O)[C@](C)(Cc1ccccc1)NC(=O)[C@H](CCC(=O)O)NC(=O)[C@](C)(CCCCN)NC(=O)[C@H](C)NC(=O)[C@H](C)NC(=O)[C@H](CCC(=O)O)NC(=O)CNC(=O)[C@H](CCC(=O)O)NC(=O)[C@H](CC(C)C)NC(=O)[C@](C)(Cc1ccccc1)NC(=O)[C@H](CO)NC(=O)[C@](C)(CO)NC(=O)[C@@H](NC(=O)[C@H](CC(=O)O)NC(=O)[C@H](CO)NC(=O)[C@@H](NC(=O)[C@](C)(Cc1ccccc1)NC(=O)[C@H](CO)NC(=O)CNC(=O)[C@H](CCC(=O)O)NC(=O)C(C)(C)NC(=O)[C@@H](N)Cc1c[nH]cn1)[C@@H](C)O)C(C)C)[C@@H](C)CC)C(C)C)C(C)C)C(=O)NCC(=O)NCC(N)=O)C(=O)O [compound 72] | ≥ 28 | ≥ 28 | ≥ 28 | ≥ 28 | 46 | 52 | 49 | 6160 | 4260 | 8070
